Where “and” joins values, the source holds several entries; their conditions need not be identical. Equal values may be shown once.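 Cells were grown in 96-well plates and exposed to each compound for 48 hours at five concentrations; endpoints were interpolated linearly between bracketing concentrations, or set to the highest concentration if not reached. GI50 is the concentration that inhibits growth by half. The concentration for full growth arrest is given as TGI.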
Key:
Assay in all cases: NCI-60 cell line screen, 48 h
OVCAR-5 ovarian = tested on: OVCAR-5 ovarian
SN12C renal = tested on: SN12C renal
HCT-116 colon = tested on: HCT-116 colon
OVCAR-3 ovarian = tested on: OVCAR-3 ovarian
OVCAR-4 ovarian = tested on: OVCAR-4 ovarian
SK-MEL-5 melanoma = tested on: SK-MEL-5 melanoma
K-562 leukemia = tested on: K-562 leukemia
A549 NSCLC = tested on: A549 NSCLC
CAKI-1 renal = tested on: CAKI-1 renal
SK-OV-3 ovarian = tested on: SK-OV-3 ovarian

SMILES | TGI (OVCAR-5 ovarian) | TGI (SN12C renal) | TGI (HCT-116 colon) | TGI (OVCAR-3 ovarian) | TGI (OVCAR-4 ovarian) | TGI (SK-MEL-5 melanoma) | TGI (K-562 leukemia) | TGI (A549 NSCLC) | TGI (CAKI-1 renal) | TGI (SK-OV-3 ovarian) | GI50 (OVCAR-5 ovarian) | GI50 (SN12C renal) | GI50 (HCT-116 colon) | GI50 (OVCAR-3 ovarian) | GI50 (OVCAR-4 ovarian) | GI50 (SK-MEL-5 melanoma) | GI50 (K-562 leukemia) | GI50 (A549 NSCLC) | GI50 (CAKI-1 renal) | GI50 (SK-OV-3 ovarian)
Cc1ccc2c(c1)C(c1cccc3ccccc13)OC2=O (configuration not stated) | > 100 µM | > 100 µM | > 100 µM | > 100 µM | > 100 µM | > 100 µM | > 100 µM | > 100 µM | > 100 µM | > 100 µM |  |  |  |  |  |  |  |  |  | 
O=C1Nc2cccc3cc(NCC(O)CCl)cc1c23 (configuration not stated) | > 100 µM | > 100 µM | > 100 µM | > 100 µM | > 100 µM | > 100 µM | > 100 µM | > 100 µM | > 100 µM | > 100 µM |  |  |  |  |  |  |  |  |  | 
C=C(C=O)CCCC(C)[C@@H]1CCC23CC12CCC1[C@@]2(C)CCC(OC(C)=O)C(C)(C)C2CC(OC2OC(COC(C)=O)C(O)C(O)C2O)[C@]13C (some centres not stated) | 11.8 µM | 5.77 µM | 1.43 µM | 8.21 µM | 11.1 µM | 11.3 µM | 6.78 µM | 12.5 µM | 10.9 µM | 12 µM |  |  |  |  |  |  |  |  |  | 
COC(=O)CCC1=C(C)/C(=C/c2[nH]c(-c3ccc[nH]3)cc2OC)N=C1C | 12.9 µM | 18.1 µM | 1.41 µM | 1.7 µM | 2.12 µM | 0.248 µM | 4.9 µM | 6.32 µM | 3.15 µM | 11.6 µM | 1.04 µM | 2.35 µM | 0.331 µM | 0.397 µM | 0.626 µM | 0.0965 µM | 0.374 µM | 0.565 µM | 0.346 µM | 3.93 µM
O=c1ccc(=O)c2c(=O)c3ccccc3c(=O)c1=2 | > 100 µM | > 100 µM | 61.1 µM | 55.2 µM | > 100 µM | 35.5 µM | > 100 µM | > 100 µM | > 100 µM | > 100 µM |  |  |  |  |  |  |  |  |  | 
COc1cc2nc(-c3ccc(C(F)(F)F)cc3)cc(OCCCN3CCCCC3)c2cc1OC | 16.5 µM | 15.8 µM | 11.6 µM | 15.4 µM | 31.3 µM | 1.2 µM | 10.4 µM | 19.4 µM | 5.05 µM | 23.3 µM | 0.71 µM | 0.668 µM | 0.429 µM | 2.44 µM | 2.91 µM | 0.325 µM | 0.578 µM | 0.722 µM | 0.272 µM | 2.3 µM
COC(=O)c1nc(N)[nH]c(=O)c1CCCCCc1c(C(=O)OC)nc(N)[nH]c1=O | > 50 µM | > 50 µM | > 50 µM | > 50 µM | > 50 µM | > 50 µM | > 50 µM | > 50 µM | > 50 µM | > 50 µM |  |  |  |  |  |  |  |  |  | 
C[C-](O)O.O/C(=C\[C-](O)c1ccccc1)c1ccccc1.O/C(=C\[C-](O)c1ccccc1)c1ccccc1.[Nd+3] (configuration not stated) | 33.1 µM |  | 16.5 µM | 27.4 µM | > 100 µM | 18 µM | 16.4 µM | 48.9 µM | 42.2 µM | 64.7 µM | 12.6 µM | 5.99 µM | 4.24 µM | 0.363 µM | 15.9 µM | 5.22 µM | 3.78 µM | 18.2 µM | 11.9 µM | 16.8 µM
O=[N+]([O-])c1ccc2c(c1)[O][Sn][O]2 | > 150 µg/mL | > 150 µg/mL | > 150 µg/mL | > 150 µg/mL | > 150 µg/mL | > 150 µg/mL | > 150 µg/mL | > 150 µg/mL | > 150 µg/mL | > 150 µg/mL | > 150 µg/mL | > 150 µg/mL | 45.3 µg/mL | 48.1 µg/mL | > 150 µg/mL | 75.8 µg/mL | 40.2 µg/mL | > 150 µg/mL | 104 µg/mL | > 150 µg/mL
N#C[C@@H]1C(n2ccc(N)nc2=O)O[C@H](CO)[C@H]1O (some centres not stated) | > 100 µM | > 100 µM | > 100 µM | > 100 µM | > 100 µM | > 100 µM | > 100 µM | > 100 µM | > 100 µM | > 100 µM | > 75.2 µM | 9.69 µM | 2.66 µM | > 100 µM | > 100 µM | 38.3 µM | 19.6 µM | 6.16 µM | 3.49 µM | 39.6 µM
CC[C@@]1(O)C(=O)OCc2c1cc1n(c2=O)Cc2cc3cc(N)ccc3nc2-1 | 0.109 µM and 0.627 µM | 0.243 µM and 0.123 µM | 1.65 µM | 0.608 µM and 0.346 µM | 0.233 µM | 0.195 µM and 0.0366 µM |  | 2.24 µM and 1.26 µM | 1.62 µM and 1.21 µM | 2.64 µM and 0.756 µM | 0.0195 µM and 0.11 µM | 0.0142 µM |  | 0.0847 µM and 0.0653 µM | 0.048 µM and 0.169 µM | 0.0238 µM | 0.0512 µM and 0.043 µM | 0.0373 µM and 0.0155 µM | 0.00361 µM and 0.026 µM | 0.035 µM
C1=CC=C2NCCOCCNC3=CC=CC=CC3=NCCOCCN=C2C=C1 | > 100 µM | > 100 µM | > 100 µM | > 100 µM | > 100 µM | > 100 µM | > 100 µM | > 100 µM | > 100 µM | > 100 µM |  |  |  |  |  |  |  |  |  | 
CC(C)[C@H]1C(=O)N[C@@H](CCCN=C(N)N)C(=O)NCC(=O)N[C@@H](CC(=O)O)C(=O)N[C@H](Cc2ccccc2)C(=O)N1C | > 100 µM | > 25.3 µM | > 33.4 µM | > 100 µM | > 100 µM | 1.33 µM | > 100 µM | > 100 µM | > 100 µM | > 100 µM | 1.34 µM | 2.33 µM | 1.86 µM | > 100 µM | > 100 µM | 0.366 µM | > 100 µM | 31.8 µM | > 28.7 µM | > 100 µM
COc1ccc(Cl)cc1Nc1nc(C(F)(F)F)ccc1C(=O)N/N=C/c1cc(OC)c(OC)c(OC)c1 | 24.4 µM | 18 µM | 7.66 µM | > 100 µM | > 100 µM | 4.57 µM | > 100 µM | 6.64 µM | 4.98 µM | 15 µM | 5.59 µM | 2.09 µM | 2.41 µM | 0.449 µM | 1.32 µM | 1.68 µM | 2.42 µM | 2.64 µM | 1.61 µM | 3.04 µM
O=C(OC[C@H]1O[C@@H](OC(=O)c2cc(O)c(O)c(O)c2)[C@H](OC(=O)c2cc(O)c(O)c(O)c2)[C@@H](OC(=O)c2cc(O)c(O)c(O)c2)[C@@H]1OC(=O)c1cc(O)c(O)c(O)c1)c1cc(O)c(O)c(O)c1 | 52.5 µM | > 100 µM | 16.8 µM | 17.7 µM | 41.1 µM | 24.2 µM | > 100 µM | 19.8 µM | 85.6 µM | > 100 µM |  |  |  |  |  |  |  |  |  | 

— PubChem BioAssay (NCI)
